Laboratory results published in patent US20250114313A1, “OLIGO-BENZAMIDE ANALOGS AND THEIR USE IN CANCER TREATMENT” (BOARD OF REGENTS, THE UNIVERSITY OF TEXAS SYSTEM, priority 2022, published 2025).

Experiment: Evaluation of normal organs of treated mice (H&E, IHC, flow cytometry, ELISpot)
Type: in vivo
Experimental: Immunohistochemistry: Immunohistochemical studies were performed as described previously.^7 For the immunohistochemical studies, tissue sections were blocked in background sniper (Biocare Medical, RS966L) followed by overnight incubation with primary antibodies anti-Ki-67 antibody (1:1000, GeneTex cat #GTX16667 RRID:AB_422351) (link), anti-CHOP antibody (1:2000, Sigma, Cat #HPA068416), anti-PERK (phospho T982) antibody (1:150, Abcam Cat #ab192591, RRID:AB_2728666) link)), anti-phospho-eIF2α (Ser51) (1:50, Cell signaling, cs3398) and subsequent secondary antibody incubation for 60 min at room temperature. Immunoreactivity was visualized by using the DAB substrate and counterstained with hematoxylin (Vector Lab, Inc.). Percent of Ki67 positive proliferating cells was calculated in five randomly selected high-power fields (×40).
ELISpot. For ELISpot analysis of total IgM^+ and IgG^+ ASCs, Multi-Screen® filter plates (Millipore) were activated with 35% ethanol, washed with PBS, and coated with anti-IgM (SouthernBiotech, Cat. #1020-01) or anti-IgG (SouthernBiotech, Cat. #1030-01) in PBS. Single bone marrow cell suspensions were prepared, as above, and cultured at 250,000 cells/ml in RPMI 1640 medium (Invitrogen) supplemented with FBS (10% v/v, Invitrogen), penicillin-streptomycin/amphotericin B (1% v/v) and 50 μM β-mercaptoethanol (RPMI-FBS) at 37° C. for 16 h. After supernatants were removed, plates were incubated with biotinylated goat anti-mouse IgM (SouthernBiotech, Cat. #1020-08) or goat anti-mouse IgG1 (SouthernBiotech, Cat. #1070-08) Ab for 2 h and, after washing, incubated with HRP-conjugated streptavidin. Plates were developed using the Vectastain AEC peroxidase substrate kit (Vector Laboratories). The stained area in each well was quantified using the CTL ImmunoSpot software (Cellular Technology) and depicted as the number of spots for quantification
Flow cytometry: Single cell suspensions were flushed from tibia and fibula using sterile DPBS using a 10 ml syringe and 30 G needle. Red blood cells were removed by incubation with ACK lysis buffer (Lonzo) for 2 m. Bone marrow cells (2×10^6) were first stained in Hank's Buffered Salt Solution plus 0.1% BSA (HBSS-BSA) for 20 m with fixable viability dye (FVD, eFluor™ 506, eBioscience™, Cat. #50-246-097) and fluorophore-labeled mAbs to surface markers, including CD3 (APC-Cy7, Clone 17A2, BioLegend, Cat. #100221), IgD (FITC, Clone 11-26c.2a, BioLegend, Cat. #405704), CD138 (PE-Cy7, Clone 281-2, BioLegend, Cat. #142514), SCA-1 (PerCP, Clone D7, BioLegend, Cat. #108121), B220 (BV421, Clone RA3-6B2, BioLegend, Cat. #103240), in the presence of mAb Clone 2.4G2, which blocks FcγII and FcγIII receptors. After washing, cells were then fixed and permeablized by incubation for 1 h in 250 μl BD Cytofix/Cytoperm™ buffer (BD Fixation/Permeablization Kit, Cat. #554714) at 4° C. After washing twice with the BD Perm/Wash™ buffer, cells were counted again and 10^6 cells were resuspended in 100 μl of BD Cytofix/Cytoperm™ buffer for intracellular staining with anti-Igκ mAb (PE, e-Bioscience™, Clone 1871, Cat. #MKAPPA04) for 30 m. After washing with BD Perm/Wash™ buffer, cells were analyzed by LSRII (BD). FACS data were analyzed by the FlowJo® software (BD).
Animal Studies: All animal experiments were performed using UTHSA and UTSW IACUC approved protocols. For cell based xenograft tumor assays, TNBC cells (2×10^5-2×10^6) were mixed with an equal volume of matrigel and implanted in the mammary fat pads of 6-week-old female athymic nude mice as described^33. BALB/c mice were used for D2A1 syngeneic model. Once tumors reached measurable size, mice were divided into control (vehicle) and ERX-41 (10 mg/kg/oral) treatment groups. Mice bearing TNBC PDX tumors were purchased from Jackson laboratory (TM00089; TM00096; TM00098). TNBC PDX line UTPDX0001 establishment was earlier described^38. WHIM-20 ER+PDX model was purchased from Horizon Labs. OCa-PDX-38 was received from UTHSA ObGyn tissue procurement core. […]

## CC(C)COc1cc(C(=O)Nc2ccc(C(=O)N[C@H]3CC[C@H](C)CC3)cc2OCC(C)C)ccc1NC(=O)c1ccc([N+](=O)[O-])c(OCCO)c1 [ERX-41]
Flow cytometry and ELISpot, 1 week oral 10 mg/kg/day
  bone marrow plasma cell numbers, Ig κ expression, IgM or IgG ASCs: did not show any significant effects
heart, lung, spleen, liver, kidney, ovary, pancreas, 30 days oral 10 mg/kg/day
  gross histology of organs, nude mice with MDA-MB-231 xenografts: no significant changes in the gross histology of multiple organs
Multiple organs including spleen
  histology of organs, syngeneic mice with D2A1 xenografts: no significant histologic changes or immune infiltrates
Oral administration, data not shown
  ER stress in normal liver or kidney tissues: no significant induction of ER stress
oral, 10 mg/kg/day
  uterus: proliferation index (Ki67), endometrial cell height, ERα expression: did not affect the proliferation index
Syngeneic mice
  immunogenicity: not immunogenic
